# Assay results from the NIST ThermoML archive (doi:10.1021/acs.jced.7b01091).
# ± gives the expanded uncertainty stated by the source.
# Conditions: Liquid; for vapor or sublimation pressure: Closed cell (Static) method; for mass density: 101.33 kPa, Vibrating tube method
smiles,measurement,setting,value
"ClCCCl [1,2-dichloroethane]",vapor or sublimation pressure,284.87 K,5.38 ± 0.11 kPa
same,vapor or sublimation pressure,294.83 K,8.97 ± 0.18 kPa
same,vapor or sublimation pressure,294.84 K,8.96 ± 0.18 kPa
same,mass density,298.15 K,1245.68 ± 2.5 kg/m3
same,vapor or sublimation pressure,298.15 K,10.53 ± 0.21 kPa
same,vapor or sublimation pressure,304.82 K,14.34 ± 0.29 kPa
same,vapor or sublimation pressure,314.81 K,22.19 ± 0.45 kPa
same,vapor or sublimation pressure,314.83 K,22.18 ± 0.45 kPa
same,vapor or sublimation pressure,324.83 K,33.27 ± 0.67 kPa
same,vapor or sublimation pressure,334.82 K,48.47 ± 0.97 kPa
same,vapor or sublimation pressure,344.81 K,67.97 ± 1.4 kPa
same,vapor or sublimation pressure,354.89 K,94.96 ± 1.9 kPa
"C1COCO1 [1,3-dioxolane]",vapor or sublimation pressure,275 K,3.86 ± 0.08 kPa
same,vapor or sublimation pressure,284.94 K,6.74 ± 0.14 kPa
same,vapor or sublimation pressure,294.82 K,11.33 ± 0.23 kPa
same,mass density,298.15 K,1058.76 ± 2.1 kg/m3
same,vapor or sublimation pressure,298.15 K,13.31 ± 0.27 kPa
same,vapor or sublimation pressure,304.79 K,18.26 ± 0.37 kPa
same,vapor or sublimation pressure,314.76 K,28.28 ± 0.57 kPa
same,vapor or sublimation pressure,324.9 K,43.07 ± 0.87 kPa
same,vapor or sublimation pressure,334.85 K,62.99 ± 1.3 kPa
same,vapor or sublimation pressure,344.82 K,89.85 ± 1.8 kPa
same,vapor or sublimation pressure,350.77 K,109.39 ± 2.2 kPa
"C1COCCO1 [1,4-dioxane]",vapor or sublimation pressure,284.59 K,2.23 ± 0.05 kPa
same,vapor or sublimation pressure,294.82 K,3.92 ± 0.08 kPa
same,mass density,298.15 K,1027.87 ± 2.1 kg/m3
same,vapor or sublimation pressure,298.15 K,4.68 ± 0.09 kPa
same,vapor or sublimation pressure,304.81 K,6.58 ± 0.13 kPa
same,vapor or sublimation pressure,314.76 K,10.54 ± 0.21 kPa
same,vapor or sublimation pressure,324.92 K,16.71 ± 0.34 kPa
same,vapor or sublimation pressure,334.92 K,25.52 ± 0.51 kPa
same,vapor or sublimation pressure,344.89 K,37.55 ± 0.75 kPa
same,vapor or sublimation pressure,354.92 K,54.11 ± 1.1 kPa
C1CCOCC1 [tetrahydropyran],vapor or sublimation pressure,275.59 K,2.85 ± 0.06 kPa
same,vapor or sublimation pressure,285.53 K,4.91 ± 0.1 kPa
same,vapor or sublimation pressure,295.42 K,8.07 ± 0.16 kPa
same,mass density,298.15 K,879.16 ± 1.8 kg/m3
same,vapor or sublimation pressure,298.15 K,9.25 ± 0.19 kPa
same,vapor or sublimation pressure,305.37 K,12.85 ± 0.26 kPa
same,vapor or sublimation pressure,315.36 K,19.9 ± 0.4 kPa
same,vapor or sublimation pressure,325.65 K,29.99 ± 0.6 kPa
same,vapor or sublimation pressure,335.6 K,43.81 ± 0.88 kPa
same,vapor or sublimation pressure,345.59 K,61.17 ± 1.2 kPa
same,vapor or sublimation pressure,355.49 K,84.29 ± 1.7 kPa
